A short description of this assay: Compound was evaluated for inhibition of specifically bound [3H]- cocaine (2.7 nM) against Dopamine transporter in cynomolgus monkeys.

pIC50: −log10 of the molar value.

By pIC50 is commonly meant the IC50 on a negative log10 scale, so that one unit is a factor of ten. Low values mean a high IC50, high ones a low IC50. `COC(=O)C1C2CCC(C[C@@H]1c1ccc(F)cc1)N2` (stereo partly specified) had a negative-log IC50 (pIC50) of 7.44.
